One may read the half-life as how long it takes for the measured level to halve. As usually defined, the clearance is the volume of plasma or blood freed of the substance per unit of time. For orientation: bioavailability means the share of a dose that reaches the circulation, judged against a reference dose that is usually intravenous. What is called IC50 is the point on the concentration scale where inhibition reaches its midpoint. Read a high IC50 as weaker potency.

SMILES strings stand for the structures. Counter-ions that a name gives are not always drawn. Like-named read-outs stand apart in the source and are kept apart here.

The text below walks through data of patent publication US20240400547A1, “2,6-PIPERIDINEDIONE COMPOUND AND APPLICATION THEREOF” (MEDSHINE DISCOVERY INC., priority 2021, published 2024).

Data set [1] can be described thus: Pharmacokinetic evaluation in mice. It counts as in vivo, C57BL/6N or CD-1 male mice. The note with it: for Vd / half-life / clearance / bioavailability: male, plasma; for Vd: read-out: Apparent volume of distribution; for half-life: read-out: Elimination half-life (converted); for clearance: read-out: Plasma clearance rate; for bioavailability: po, read-out: Bioavailability F. An excerpt: In this study, C57BL/6N or CD-1 male mice were selected as test animals, and LC/MS/MS method was used to quantify plasma concentrations of the test compound intravenously injected or gavage to mice at different time points, so as to evaluate the pharmacokinetic profile of the compounds of the present disclosure in mice.
C57BL/6N mice (male, 20 to 30 g, 7 to 10 weeks old, Beijing VitalRiver) or CD-1 mice (male, 20 to 35 g, 7 to 10 weeks old, Beijing VitalRiver).
• The test compounds, either as clear or suspension solutions, were administered intravenously through the tail vein to C57BL/6N mice or CD-1 mice (either fasted overnight or fed) (vehicle: 10% DMSO/10% solutol/80% H2O or 5% DMSO/10% solutol/85% H2O), or intragastrically administered to C57BL/6N mice or CD-1 mice (either fasted overnight or fed). For intravenous injection, blood 50 μL was collected via the cheek vein puncture at 0 h (pre-administration), 0.083, 0.25, 0.5, 1, 2, 4, 6, 8, and 24 h after administration, and placed in an anticoagulant tube added with heparin sodium. The mixture was thoroughly vortexed and mixed, and centrifuged at 6000 g for 3 minutes at 2-8° C. For oral administration, blood was collected via the cheek vein puncture at 0 h (pre-administration), 0.083, 0.25, 0.5, 1, 2, 4, 6, 8, and 24 h after administration, and placed in an anticoagulant tube added with heparin sodium. The mixture was thoroughly vortexed and mixed, and centrifuged at 6000 g for 3 minutes at 2-8° C. Plasma concentrations were determined by LC-MS/MS method, and relevant pharmacokinetic parameters were calculated using Phoenix WinNonlin8.2.0 pharmacokinetic software with non-compartmental model linear-log trapezoidal method.
• The test compounds, as clear solutions, were administered intravenously through the tail vein to CD-1 mice (fasted overnight) (vehicle: 10% DMSO/10% solutol/80% H2O or 5% DMSO/10% solutol/85% H2O), or intragastrically administered to CD-1 mice (fasted overnight). For intravenous injection, blood was collected via the saphenous vein puncture at 0 h (pre-administration), 0.083, 0.25, 0.5, 1, 2, 4, 8, and 24 h after administration, and placed in a EDTA-K2 anticoagulant tube. The mixture was thoroughly vortexed and mixed, and centrifuged at 3200 g for 10 minutes at 4° C. to obtain plasma. For oral administration, blood was collected via the saphenous vein puncture at 0 h (pre-administration), 0.083, 0.25, 0.5, 1, 2, 4, 8, and 24 h after administration, and placed in a EDTA-K2 anticoagulant tube. The mixture was thoroughly vortexed and mixed, and centrifuged at 3200 g for 10 minutes at 4° C. to obtain plasma. Plasma concentrations were determined by LC-MS/MS method, and relevant pharmacokinetic parameters were calculated using Phoenix WinNonlin 6.3 pharmacokinetic software with non-compartmental model linear-log trapezoidal method.

The next data set concerns TMD-8. The experiment in a line: Antiproliferative effect in lymphoma cell line TMD-8 (CellTiter-Glo). It counts as cell-based. The note with it: TMD-8, 5 days; for IC50: Homo sapiens, TMD8, 120 h. The procedure: Experimental purpose: The experiment aims to evaluate the inhibitory effects of the test compounds on cell proliferation in the diffuse large B-cell lymphoma (DLBCL) cell lines OCI-LY10 and TMD-8.
The tumor cell lines were cultured in a 37° C., 5% CO2 incubator under the above culture conditions. Regular passage, and cells in logarithmic growth phase were taken for plating.
• (1) Cells were stained with trypan blue and viable cells were counted. • (2) The cell concentration was adjusted to an appropriate concentration.
• (3) 100 μL of cell suspension per well was added to the culture plate as shown above. • (4) The culture plate was cultured overnight in a 37° C., 5% CO2 incubator with 100% relative humidity.
Preparation of stock solution storage plate with 1000 times the initial concentration of the compound: The compound was serially diluted with DMSO from the highest concentration to the lowest concentration. The solution was prepared as needed each time.
4. Preparation of 1000× Compound Working Solution and Cell Treatment with Compounds • (1) Preparation of the working solution with 5 times the initial concentration of the compound: For 3-fold dilution of the compound, 30 μL of the compound from a stock solution at 1000-fold concentration was taken, and 20 μL of DMSO was added to the subsequent wells. Then, 10 μL was transferred from one concentration to the next in sequence. For 5-fold dilution of the compound, 30 μL of the compound from a stock solution at 1000-fold concentration was taken, and 24 μL of DMSO was added to the subsequent wells. Then, 6 μL was transferred from one concentration to the next in sequence. 20 μL of DMSO was added to the vehicle control. The 1000-fold concentrated compound was diluted 200 times with culture medium, i.e., 1 μL of the 1000-fold diluted compound is added to 199 μL of culture medium, and the mixture was homogenized using a pipette. • (2) Compound addition: 25 μL of the 5-fold compound solution was added to the cell culture plate. • (3) The 96-well cell plate was returned to the incubator to culture OCI-LY10 (with either 3-fold or 5-fold dilution, incubated with compounds added for 5 days) and TMD-8 (with either 3-fold or 5-fold dilution, incubated with compounds added for 5 days).
The following steps were performed according to the instructions of Promega CellTiter-Glo luminescent cell viability assay kit (Promega-G7573). • (1) CellTiter-Glo buffer was melted and brought to room temperature. • (2) CellTiter-Glo substrate was brought to room temperature. • (3) CellTiter-Glo working solution was prepared by adding 10 mL of CellTiter-Glo buffer to a vial of CellTiter-Glo substrate to dissolve the substrate. • (4) The mixture was slowly vortexed and shaken to be fully dissolved. • (5) The cell culture plate was taken out and left for 30 minutes to equilibrate to room temperature. • (6) 60 μL of CellTiter-Go working solution was added per well (equal to half the volume of cell culture medium per well). The cell plate was wrapped in aluminum foil to be protected from light. • (7) The culture plate was shaken on an orbital shaker for 2 minutes to induce cell lysis. • (8) The culture plate was left at room temperature for 10 minutes to stabilize the luminescent signal. • (9) The luminescent signal was detected on a 2104 EnVision plate reader.
The inhibition rate (IIR) of the test compound was calculated using the following formula: IR (%)=(1−RLU compound/RLU vehicle control)*100%. The inhibition rates of compounds at different concentrations were calculated in Excel, and then GraphPad Prism software was used to plot inhibition curves and calculate relevant parameters, including minimum inhibition rate, maximum inhibition rate, and IC50.

The mark [2] stands for this setting: intragastric administration 10 mg/kg, experimental operation B, fasted overnight.
Setting [3] is: intravenous injection 2 mg/kg, experimental operation B, fasted overnight.
Where [4] appears, read: CD-1, mouse, intravenous injection 2 mg/kg, experimental operation B, fasted overnight.
[5] abbreviates: CD-1, mouse, intragastric administration 10 mg/kg, experimental operation B, fasted overnight.
[6] abbreviates: intragastric administration 10 mg/kg, experimental operation A, fed.
Setting [7] is: intragastric administration 10 mg/kg, experimental operation A, fasted overnight.
The mark [8] stands for this setting: mouse, intravenous injection 2 mg/kg, experimental operation A, fasted overnight.

On to `CC(C)(O)c1cc2nc(C3CCC(CN4CCN(CC(=O)Nc5cccc6c5ccc5onc(C7CCC(=O)NC7=O)c56)CC4)CC3)sc2cc1NC(=O)c1cccc(C(F)(F)F)n1` (centres unmarked) [Formate of WX017], for which, in data set [1] (setting [2]), the “Area under drug-time curve (0-inf)” value worked out at 5.07 µM·h, the Peak concentration stood at 0.65 µM and the “Time to peak concentration” value turned out to be 4.00 h. For the same compound, the “Area under drug-time curve (0-inf)” value in data set [1] (setting [3]) came out at 3.17 µM·h. In data set [1] (setting [4]), the Vd is 2.59 L/kg, the half-life was 2.32 h and the clearance came to 12.2 mL/min/kg. Further, in data set [1] (setting [5]), the bioavailability is 31.9%.

In the data set on TMD-8, `CC(C)(O)c1cc2nc([C@H]3CC[C@H](CN4CCN(CC(=O)Nc5ccc6c(C7CCC(=O)NC7=O)noc6c5)CC4)CC3)sc2cc1NC(=O)c1cccc(C(F)(F)F)n1` (some centres unmarked) [Formate of WX026] showed an IC50 of 8.65 nM and a Maximum inhibition rate of 99.92%.

In the data set on TMD-8, `O=C1CCC(c2coc3cc(NC(=O)CN4CCN(C[C@H]5CC[C@H](N6CC(NC(=O)c7coc(-c8ccnc(NCC9CC9)c8)n7)C(C(F)F)N6)CC5)CC4)ccc23)C(=O)N1` (some centres unmarked) [Hydrochloride of WX002] came in with an IC50 of 92 nM and a Maximum inhibition rate of 83.31%. Moreover, in data set [1] (setting [2]), the “Area under drug-time curve (0-inf)” value worked out at 2.00 µM·h, the Peak concentration amounted to 0.64 µM and the “Time to peak concentration” value is given as 1.00 h.

Regarding `O=C1CCC(c2noc3ccc4c(NC(=O)CN5CCN(C[C@H]6CC[C@H](n7cc(NC(=O)c8coc(-c9ccnc(NCC%10CC%10)c9)n8)c(C(F)F)n7)CC6)CC5)cccc4c23)C(=O)N1` (some centres unmarked) [Hydrochloride of WX014], in the data set on TMD-8, the 50% inhibitory concentration (IC50) came to 10.3 nM and the Maximum inhibition rate turned out to be 89.86%. Further, in data set [1] (setting [6]), the “Area under drug-time curve (0-inf)” value came out at 4.47 µM·h, the Peak concentration amounted to 0.54 µM and the “Time to peak concentration” value was 1.00 h. Besides, the “Area under drug-time curve (0-inf)” value in data set [1] (intravenous injection 2 mg/kg, experimental operation A, fed) came to 5.40 µM·h.

On to `O=C1CCC(c2noc3ccc4c(NC(=O)C(F)(F)C5CCN(CC6CCC(n7cc(NC(=O)c8coc(-c9ccnc(NCC%10CC%10)c9)n8)c(C(F)F)n7)CC6)CC5)cccc4c23)C(=O)N1` (centres unmarked) [Hydrochloride of WX018], for which, in the data set on TMD-8, 12.8 nM corresponded to half-maximal inhibition (IC50) and the Maximum inhibition rate stood at 99.53%. In addition, in data set [1] (setting [2]), the “Area under drug-time curve (0-inf)” value amounted to 1.01 µM·h, the Peak concentration was determined as 0.09 µM and the “Time to peak concentration” value was found to be 6.00 h. Also, the “Area under drug-time curve (0-inf)” value in data set [1] (setting [3]) turned out to be 3.06 µM·h. In addition, in data set [1] (setting [4]), the Vd amounted to 4.39 L/kg, the half-life was 5.22 h and the clearance was determined as 11.8 mL/min/kg. The bioavailability in data set [1] (setting [5]) is 6.59%.

For the compound `O=C1CCC(c2coc3ccc4c(NC(=O)CN5CCN(C[C@H]6CC[C@H](n7cc(NC(=O)c8coc(-c9ccnc(NCC%10CC%10)c9)n8)c(C(F)F)n7)CC6)CC5)cccc4c23)C(=O)N1` (some centres unmarked) [Trifluoroacetate of WX011], in the data set with TMD-8, the half-maximal inhibitory concentration (IC50) is 17 nM and the Maximum inhibition rate is on record as 94.65%. In data set [1] (setting [7]), the “Area under drug-time curve (0-inf)” value worked out at 5.00 µM·h, the Peak concentration was 0.45 µM and the “Time to peak concentration” value is on record as 1.67 h. Also, the “Area under drug-time curve (0-inf)” value in data set [1] (intravenous injection 2 mg/kg, experimental operation A, fasted overnight) was 15.31 µM·h. Also, in data set [1] (setting [8]), the Vd turned out to be 1.8 L/kg, the half-life is 9.45 h and the clearance came to 2.76 mL/min/kg. For the same compound, the bioavailability in data set [1] (mouse, intragastric administration 10 mg/kg, experimental operation A, fasted overnight) turned out to be 6.53%.
